Test in all cases: inhibition of tumour cell growth, NCI panel, 48 h
Assay [1] concerns UO-31.
Assay [2] relates to RPMI-8226.
For assay [3], the system named is OVCAR-5.
Assay [4] relates to CCRF-CEM.
Assay [5] has as its system SF-539.
The subject of assay [6] is HT-29.
Assay [7] deals with SN12C.
The test system of assay [8] is UACC-62.
Assay [9] deals with UACC-257.
The test system of assay [10] is IGROV-1.
Assay [11] concerns SNB-75.
Assay [12] deals with SK-MEL-28.
Assay [13] has as its system HCT-15.
Assay [14] deals with HCC 2998.
In assay [15] the test system is OVCAR-3.
Assay [16] has as its system U-251.
The test system of assay [17] is A498.
Assay [18] deals with Hs-578T.
Assay [19] deals with HCT-116.
The subject of assay [20] is SK-OV-3.

SMILES strings stand for the structures.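 All cell lines were grown in 96-well plates and treated with compound for 48 hours. GI50 is the concentration that inhibits growth by half.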 Calls of active or inactive are those of the source. Cut-off read from the data, not from the text of the source: active = GI50 up to about 1.1 µM and inactive = higher.

As for `Cn1c(=O)c2[nH]c(CCC(=O)O)nc2n(C)c1=O`, the GI50 in assay [1], in assay [2], in [3], in assay [4], in assay [5] and in assay [6] was > 100 µM (inactive) each time. Further, the GI50 in assay [7], in assay [8], in assay [9], in assay [10], in assay [11] and in [12] was > 100 µM (inactive) in each case. For the same molecule, the GI50 in assay [13] is greater than 100 µM; in assay [14], > 100 µM (inactive); in assay [15], > 100 µM (inactive); in [16], > 100 µM (inactive); in [17], > 100 µM (inactive); in assay [18] it was > 100 µM (inactive). The GI50 in assay [19] and in assay [20] was > 100 µM (inactive) in each case.
On to `O=C(O)c1ccccc1NC(c1ccccc1)c1ccc2cccnc2c1O` (stereo not given), for which the GI50 was 6.12 µM (inactive) in assay [1]; 3.04 µM (inactive) in [2]; 8.97 µM (inactive) in assay [3]; 1.93 µM (inactive) in assay [4]; 5.14 µM (inactive) in assay [5]; 4.4 µM (inactive) in [6]. Also, the GI50 in assay [7] is 6.58 µM (inactive); in assay [8], 11.6 µM (inactive); in assay [9], 14 µM (inactive); in [10], 20.4 µM (inactive); in assay [11] it was 29.3 µM (inactive); in assay [12], 6.41 µM (inactive). Further, the GI50 in assay [13] is 4.42 µM; in assay [14] it was 12.3 µM (inactive); in assay [15], 3.63 µM (inactive); in [16] it was 4.08 µM (inactive); in assay [17] it was 24.6 µM (inactive); in assay [18], 22.4 µM (inactive). Besides, the GI50 in assay [19] was 3.65 µM (inactive); in assay [20] it was 16.8 µM (inactive).
As to `COC(OC)C1OC(CO)C(n2ccc(N)nc2=O)C1O` (stereo not given), the GI50 in [1], in assay [2], in assay [3], in assay [4], in [5] and in assay [6] was > 100 µM (inactive) in each case. Besides, the GI50 in assay [7], in assay [8], in assay [9], in assay [10], in [11] and in assay [12] was > 100 µM (inactive) in each case. In addition, the GI50 in assay [13] was greater than 100 µM; in [14], > 100 µM (inactive); in assay [15], > 100 µM (inactive); in assay [16] it was > 100 µM (inactive); in assay [17], > 100 µM (inactive); in assay [18], > 100 µM (inactive). Besides, the GI50 in assay [19] and in [20] was > 100 µM (inactive) each time.
`CCN(CC)CCn1nc(N)c2nc3ccccc3nc21`: the GI50 in assay [1], in [2], in assay [3], in assay [4], in [5] and in assay [6] was > 100 µM (inactive) in each case. In addition, the GI50 in assay [7] is > 100 µM (inactive); in assay [8], > 100 µM (inactive); in assay [9], > 100 µM (inactive); in assay [10], > 100 µM (inactive); in [11] it was 39.9 µM (inactive); in [12] it was > 100 µM (inactive). For the same molecule, the GI50 in assay [13] was greater than 100 µM; in [14], > 100 µM (inactive); in [15], > 100 µM (inactive); in assay [16] it was > 100 µM (inactive); in assay [17], > 100 µM (inactive); in assay [18] it was > 100 µM (inactive). In addition, the figures for the GI50 in assay [19] and in assay [20] were 53.8 µM (inactive) and > 100 µM (inactive), respectively.
